Tests used:
[1] = molecular target: T1, ICE (Homo sapiens, UniProt P29466); test: Enzyme assay with UV-visible substrate (visible ICE assay, Succinyl-Tyr-Val-Ala-Asp-pNitroanilide); type: biochemical
T1 sequence (P29466 120-297 limits assumed): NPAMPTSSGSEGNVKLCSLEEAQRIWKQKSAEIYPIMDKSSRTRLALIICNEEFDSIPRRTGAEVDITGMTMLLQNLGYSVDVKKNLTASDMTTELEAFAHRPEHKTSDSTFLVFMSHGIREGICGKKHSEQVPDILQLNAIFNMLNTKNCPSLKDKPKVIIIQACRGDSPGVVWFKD
T1 sequence (P29466 317-404 limits assumed): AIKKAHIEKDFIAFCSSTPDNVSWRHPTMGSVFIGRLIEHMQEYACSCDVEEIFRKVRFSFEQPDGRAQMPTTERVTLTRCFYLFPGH
Method: 1. Enzyme Assay with Uv-Visible Substrate
This assay is run using an Succinyl-Tyr-Val-Ala-Asp-pNitroanilide substrate. Synthesis of analogous substrates is described by L. A. Reiter (Int. J. Peptide Protein Res. 12, 87-96 (1994)). The assay mixture contains:
The visible ICE assay is run in a 96-well microtiter plate. Buffer, ICE and DMSO (if inhibitor is present) are added to the wells in the order listed. The components are left to incubate at room temperature for 15 minutes starting at the time that all components are present in all wells. The microtiter plate reader is set to incubate at 37° C. After the 15 minute incubation, substrate is added directly to the wells and the reaction is monitored by following the release of the chromophore (pNA) at 405-603 nm at 37° C. for 20 minutes. A linear fit of the data is performed and the rate is calculated in mOD/min. DMSO is only present during experiments involving inhibitors, buffer is used to make up the volume to 100 μl in the other experiments.
For determination of enzyme inhibition constants (Ki) or the mode of inhibition (competitive, uncompetitive or noncompetitive), the rate data determined in the enzyme assays at varying inhibitor concentrations are computer-fit to standard enzyme kinetic equations (see I. H. Segel, Enzyme Kinetics, Wiley-Interscience, 1975).

[2] = test system: IL-1β, human peripheral blood mononuclear cells (PBMC); test: PBMC cell assay: IL-1β assay with human PBMC or enriched adherent mononuclear cells, LPS-stimulated; type: cell-based
Description: IL-1β Assay with a Mixed Population of Human Peripheral Blood Mononuclear Cells (PBMC) or Enriched Adherent Mononuclear Cells
Processing of pre-IL-1β by ICE can be measured in cell culture using a variety of cell sources. Human PBMC obtained from healthy donors provides a mixed population of lymphocyte subtypes and mononuclear cells that produce a spectrum of interleukins and cytokines in response to many classes of physiological stimulators. Adherent mononuclear cells from PBMC provides an enriched source of normal monocytes for selective studies of cytokine production by activated cells.
An initial dilution series of test compound in DMSO or ethanol is prepared, with a subsequent dilution into RPMI-10% FBS media (containing 2 mM L-glutamine, 10 mM HEPES, 50 U and 50 ug/ml pen/strep) respectively to yield drugs at 4× the final test concentration containing 0.4% DMSO or 0.4% ethanol. The final concentration of DMSO is 0.1% for all drug dilutions. A concentration titration which brackets the apparent Ki for a test compound determined in an ICE inhibition assay is generally used for the primary compound screen.
Generally 5-6 compound dilutions are tested and the cellular component of the assay is performed in duplicate, with duplicate ELISA determinations on each cell culture supernatant.
PBMC Isolation and IL-1 Assay:
Buffy coat cells isolated from one pint human blood (yielding 40-45 ml final volume plasma plus cells) are diluted with media to 80 ml and LeukoPREP separation tubes (Becton Dickinson) are each overlaid with 10 ml of cell suspension. After 15 min centrifugation at 1500-1800×g, the plasma/media layer is aspirated and then the mononuclear cell layer is collected with a Pasteur pipette and transferred to a 15 ml conical centrifuge tube (Corning). Media is added to bring the volume to 15 ml, gently mix the cells by inversion and centrifuge at 300×g for 15 min. Resuspend the PBMC pellet in a small volume of media, count cells and adjust to 6×10^6 cells/ml.
For the cellular assay, 1.0 ml of the cell suspension is added to each well of a 24-well flat bottom tissue culture plate (Corning), 0.5 ml test compound dilution and 0.5 ml LPS solution (Sigma #L-3012; 20 ng/ml solution prepared in complete RPMI media; final LPS concentration 5 ng/ml). The 0.5 ml additions of test compound and LPS are usually sufficient to mix the contents of the wells. Three control mixtures are run per experiment, with either LPS alone, solvent vehicle control, and/or additional media to adjust the final culture volume to 2.0 ml. The cell cultures are incubated for 16-18 hr at 37° C. in the presence of 5% CO2.
At the end of the incubation period, cells are harvested and transferred to 15 ml conical centrifuge tubes. After centrifugation for 10 min at 200×g, supernatants are harvested and transferred to 1.5 ml Eppendorf tubes. It may be noted that the cell pellet may be utilized for a biochemical evaluation of pre-IL-1β and/or mature IL-1β content in cytosol extracts by western blotting or ELISA with pre-IL-1β specific antisera.
Isolation of Adherent Mononuclear Cells:
PBMC are isolated and prepared as described above. Media (1.0 ml) is first added to wells followed by 0.5 ml of the PBMC suspension. After a one hour incubation, plates are gently shaken and nonadherent cells aspirated from each well. Wells are then gently washed three times with 1.0 ml of media and final resuspended in 1.0 ml media. The enrichment for adherent cells generally yields 2.5−3.0×10^5 cells per well. The addition of test compounds, LPS, cell incubation conditions and processing of supernatants proceeds as described above.
We have used Quantikine kits (R&D Systems) for measurement of mature IL-1β. Assays are performed according to the manufacturer's directions. Mature IL-1β levels of about 1-3 ng/ml in both PBMC and adherent mononuclear cell positive controls are observed. […]

[3] = Homo sapiens, PBMC, * = values obtained upon reassay
[4] = * = values obtained upon reassay

Row | Ki ([1]; Table 5) [nM] | Ki ([1]; Table 17) [nM] | SMILES | IC50 [2, 3] [nM] | other results
1 | 1200 | – | CC(=O)N[C@H]1CCC(=O)N2CCC[C@@H](C(=O)N[C@H](C=O)CC(=O)O)N2C1=O [Compound 214c, [3S(1S,9S)]3-(9-Acetylamino-6,10-dioxo-1,2,3,4,7,8,9,10-octahydro-6H-pyridazino-[1,2-a][1,2]diazepine-1-carboxamido)-4-oxobutanoic acid] | 5000 | –
2 | 600 | – | CS(=O)(=O)N[C@H]1CCC(=O)N2CCC[C@@H](C(=O)N[C@@H](CC(=O)O)C(=O)c3ncc(-c4c(Cl)cccc4Cl)o3)N2C1=O [Compound 220b, [3S(1S,9S)]-4-[5-(2,6-Dichlorophenyl)oxazol-2-yl]-3-(6,10-dioxo-9-methylsulphonylamino-1,2,3,4,7,8,9,10-octahydro-6H-pyridazino[1,2-a][1,2]diazepine-1-carboxamido)-4-oxobutanoic acid] | 2120 | –
3 | 500 | – | O=C[C@@H](CCC(=O)O)NC(=O)[C@@H]1CCCN2C(=O)CC[C@H](NC(=O)c3ccccc3)C(=O)N12 [Compound 238e, [4R,(1S,9S)]-4-[9-(Benzoylamino)-6,10-dioxo-1,2,3,4,7,8,9,10-octahydro-6H-pyridazino-[1,2-a][1,2]diazepine-1-carboxamido]-5-oxopentanoic acid] | 4250 | –
4 | 13 | – | C[C@H]1CC(=O)N2CCC[C@@H](C(=O)N[C@H](C=O)CC(=O)O)N2C(=O)[C@H]1NC(=O)c1ccccc1 [Compound 257, [3S(1S,8S,9S)]3-(9-benzoylamino-6,10-dioxo-8-methyl-1,2,3,4,7,8,9,10-octahydro-6H-pyridazino-[1,2-a][1,2]diazepine-1-carboxamido)-4-oxobutanoic acid] | 11000 | IC50 [2, 4]: 6600 nM
5 | – | – | CS(=O)(=O)N[C@H]1CCC(=O)N2CCC[C@@H](C(=O)N[C@@H](CC(=O)O)C(=O)CSc3nnnn3-c3ccccc3)N2C1=O [Compound 280b, [3S(1S,9S)]3-(6,10-Dioxo-9-methanesulphonamido-1,2,3,4,7,8,9,10-octahydro-6H-pyridazino[1,2-a][1,2]diazepine-1-carboxamido)-4-oxo-5(1-phenyl-1H-tetrazole-5-thio)pentanoic acid] | – | IC50 ([2]; Table 17): 13000 nM
6 | 750 | – | O=C[C@H](CC(=O)O)NC(=O)[C@@H]1CCCN2C(=O)CC[C@H](NC(=O)C3CC3)C(=O)N12 [Compound 413] | 6200 | –
7 | 280 | – | COC(=O)N[C@H]1CCC(=O)N2CCC[C@@H](C(=O)N[C@H](C=O)CC(=O)O)N2C1=O [Compound 419] | > 8000 | –
8 | 1200 | – | CNC(=O)N[C@H]1CCC(=O)N2CCC[C@@H](C(=O)N[C@H](C=O)CC(=O)O)N2C1=O [Compound 420] | 8000 | IC50 [2, 4]: > 8000 nM
9 | 200 | – | CCS(=O)(=O)N[C@H]1CCC(=O)N2CCC[C@@H](C(=O)N[C@H](C=O)CC(=O)O)N2C1=O [Compound 421] | 4300 | IC50 [2, 4]: 4600 nM
10 | 90 | – | O=C[C@H](CC(=O)O)NC(=O)[C@@H]1CCCN2C(=O)CC[C@H](NC(=O)C3CCCCC3)C(=O)N12 [Compound 426] | 4500 | IC50 [2, 4]: 2500 nM
11 | 60 | – | CC(=O)Nc1ccccc1C(=O)N[C@H]1CCC(=O)N2CCC[C@@H](C(=O)N[C@H](C=O)CC(=O)O)N2C1=O [Compound 430] | > 8000 | –
12 | 8 | – | O=C[C@H](CC(=O)O)NC(=O)[C@@H]1CCCN2C(=O)CC[C@H](NC(=O)c3ccnc4ccccc34)C(=O)N12 [Compound 435] | 4400 | –
13 | 7.5 | – | O=C[C@H](CC(=O)O)NC(=O)[C@@H]1CCCN2C(=O)CC[C@H](NC(=O)c3cnc4ccccc4c3)C(=O)N12 [Compound 436] | 2700 | –
14 | – | – | CS(=O)(=O)N[C@H]1CCC(=O)N2CCC[C@@H](C(=O)N[C@@H](CC(=O)O)C(=O)COC(=O)c3ccccc3Oc3ccccc3)N2C1=O [Compound 505c, [3S(1S,9S)]3-[6,10-Dioxo-9-(methanesulphonylamino)-1,2,3,4,7,8,9,10-octahydro-6H-pyridazino[1,2-a][1,2]diazepine-1-carboxamido]-4-oxo-5-(2-phenoxybenzoyloxy)pentanoic acid] | – | IC50 ([2]; Table 17): 1500 nM
15 | – | – | CS(=O)(=O)N[C@H]1CCC(=O)N2CCC[C@@H](C(=O)N[C@@H](CC(=O)O)C(=O)COC(=O)c3cccc(Oc4ccccc4)c3)N2C1=O [Compound 505d, [3S(1S,9S)]3-[6,10-Dioxo-9-(methanesulphonylamino)-1,2,3,4,7,8,9,10-octahydro-6H-pyridazino[1,2-a][1,2]diazepine-1-carboxamido]-4-oxo-5-(3-phenoxybenzoyloxy)pentanoic acid] | – | IC50 ([2]; Table 17): > 20000 nM
16 | – | – | CS(=O)(=O)N[C@H]1CCC(=O)N2CCC[C@@H](C(=O)N[C@@H](CC(=O)O)C(=O)COc3nc4ccccn4c(=O)c3Cl)N2C1=O [Compound 505f, [3S(1S,9S)]5-(3-Chloro-2-oxy-4H-pyrido[1,2-a]pyrimidin-4-one)-3-[6,10-dioxo-9-(methylsulphonyl)amino-1,2,3,4,7,8,9,10-octahydro-6H-pyridazino[1,2-a][1,2]diazepine-1-carboxamido]-4-oxopentanoic acid] | – | IC50 ([2]; Table 17): 550 nM
17 | – | 250 | O=C[C@H](CC(=O)O)NC(=O)[C@@H]1CCCN2C(=O)CCN(NC(=O)/C=C/c3ccc(Cl)c(Cl)c3)C(=O)N12 [Compound 1115] | – | –
18 | – | 215 | O=C[C@H](CC(=O)O)NC(=O)[C@@H]1CCCN2C(=O)CCN(NC(=O)/C=C/c3ccc4c(c3)OCO4)C(=O)N12 [Compound 1116] | – | –
19 | – | 380 | O=C[C@H](CC(=O)O)NC(=O)[C@@H]1CCCN2C(=O)CCN(NC(=O)CC3CCCCC3)C(=O)N12 [Compound 1118] | – | –
20 | – | 515 | O=C[C@H](CC(=O)O)NC(=O)[C@@H]1CCCN2C(=O)CCN(NC(=O)CCC3CCCCC3)C(=O)N12 [Compound 1119] | – | –
21 | – | 95 | O=C[C@H](CC(=O)O)NC(=O)[C@@H]1CCCN2C(=O)CCN(NC(=O)C(=O)Nc3ccc(Cl)cc3)C(=O)N12 [Compound 1120] | – | –
22 | – | 170 | O=C[C@H](CC(=O)O)NC(=O)[C@@H]1CCCN2C(=O)CCN(NC(=O)Cc3ccc4c(c3)OCO4)C(=O)N12 [Compound 1121] | – | –
23 | – | 400 | Cc1cc(C)c(CC(=O)NN2CCC(=O)N3CCC[C@@H](C(=O)N[C@H](C=O)CC(=O)O)N3C2=O)c(C)c1 [Compound 1122] | – | –
24 | – | 270 | COc1cc(C(=O)C(=O)NN2CCC(=O)N3CCC[C@@H](C(=O)N[C@H](C=O)CC(=O)O)N3C2=O)cc(OC)c1OC [Compound 1124] | – | –

From patent US20120165319A1, “INHIBITORS OF INTERLEUKIN-1 BETA CONVERTING ENZYME” (VERTEX PHARMACEUTICALS INCORPORATED, priority 1995, published 2012)
